Reference: patent US7897759B2, “Metabolically stable puromycin analogs” (MUSC Foundation for Research Development, priority 2007, dated 2011)

Columns and labels:
[1] = test system: breast cancer (MCF-7) cells; test: SRB cytotoxicity assay in MCF-7 cells; assay type: cell-based; conditions: 72 h, FIG. 1
Method: Dump media and wash wells with PBS. Add approx 100 μL 10% TCA to wells using squirt bottle. Incubate at 4° C. for 30 minutes to 1 hour. Dump TCA and wash plate 5 times with water (use beaker for washes). Add 100 ul SRB dye to wells. Incubate at room temperature for 30 minutes. Dump dye and wash plate 4 times with 1% acetic acid (use beaker for washes). Add 200 μL Tris Base to wells. Incubate at room temperature with agitation for at least 1 hour. Use Softmax pro plate reader with SRB560.
MCF-7 cells were plated at a density of 50,000 cells/well (99 μL/well) in a 96-well microtiter plate and allowed to adhere at 37° C. for 4 h. The drug (dissolved in 1 μL of DMSO/medium solution) was added and cells were incubated at 37° C. for 72 h. 100 μL of a 10% solution of trichloroacetic acid was then added and the cells were incubated for 1 h at 4° C. The supernatant was removed and the plate was washed 5 times with water. 100 μL of SRB dye (Promega) was added and the plate was incubated at rt for 30 min. The dye was removed and the plate was washed 4 times with 1% acetic acid solution. 200 μL of Tris Base was added, and the plate was incubated at rt with agitation for 1 h. Absorbance was read at 560 nm.

[2] = test system: leukemia (HL-60) cells; test: MTS cytotoxicity assay in HL-60 cells; assay type: cell-based; conditions: 72 h, FIG. 2
Method: HL-60 cells were plated at a density of 4,000 cells/well (99 μL/well) in a 96-well microtiter plate. The drug (dissolved in 1 μL of DMSO/medium solution) was added and cells were incubated at 37° C. for 72 h. 20 μL of a solution of MTS/PMS (Promega, 5% PMS/MTS) was then added, the cells were incubated for 1 h, after which absorbance was read at 490 nm.

[3] = Body weight / toxicity in murine mammary tumor model; assay type: in vivo
Method: Model: JC murine mammary adenocarcinoma cells growing in Balb/c mice.
(§1) Treatment: Drug was administered by intraperitoneal injection on days 7, and 12 at 50 mg/kg dissolved in 50% DMSO:50% PBS.

[4] = test system: JC murine mammary adenocarcinoma cells growing in Balb/c mice; test: Antitumor effects in murine mammary tumor model; assay type: in vivo; conditions: 50 mg/kg intraperitoneal on days 7 and 12, FIG. 3
Method: Model: JC murine mammary adenocarcinoma cells growing in Balb/c mice. Treatment is started when tumor are small, typically ˜20 mm3.
as §1

[5] = test system: Bacillus cereus ATCC 10987; conditions: B. cereus; Gilbert et al., Tetrahedron 2005; cited from earlier work
[6] = test system: Bacillus subtilis ATCC 6633; conditions: B. subtilis; Gilbert et al., Tetrahedron 2005; cited from earlier work

Row | SMILES | cytotoxic activity (killing curve) versus puromycin [1] | cytotoxic activity (killing curve) versus puromycin [2] | toxicity ([3]; 50 mg/kg intraperitoneal on days 7 and 12) | effect on body weight ([3]; 50 mg/kg intraperitoneal, during the treatment period (or after), FIG. 4) | effect on tumor growth [4] | antimicrobial activity (MIC) [5] | antimicrobial activity (MIC) [6]
1 | CN(C)c1ncnc2c1ncn2[C@@H]1O[C@H](CO)[C@H](CC(=O)[C@@H](N)Cc2ccccc2)C1O (stereo partly drawn) [GG-48, 9-{3-[1-(3-amino-2-oxo-4-phenyl)butyl]-3-deoxy-D-ribofuranosyl}-6-dimethylaminopurine] | killing curves overlapping those of puromycin | killing curves overlapping those of puromycin | no obvious toxicity | no loss of body weight | suppressed tumor growth | – | –
2 | COc1ccc(C[C@H](N)C(=O)N[C@H]2[C@@H](O)[C@H](n3cnc4c(N(C)C)ncnc43)O[C@@H]2CO)cc1 [puromycin] | – | – | – | – | – | 3.13 µg/mL | 3.13 µg/mL
